Measurements as given in patent US20230373934A1, “ANDROGEN RECEPTOR MODULATORS AND METHODS FOR THEIR USE” (ESSA Pharma, Inc., priority 2022, published 2023).

Columns and labels:
[1] = Microsomal stability assay, liver microsome half-life (rat); type: in vitro ADME; settings: pH 7.4; rat liver microsomes 0.5 mg/mL + NADPH, 1 μM compound, 37° C; read-out: Liver microsome + NADPH T½ (min) Rat
Description: (§1) Microsomal Stability Assay: Microsomal stability assay is a widely used in vitro model to characterize the metabolic conversion by phase I enzymes, such as cytochrome P450 (CYP) enzymes. Since metabolism is known to be highly variable in different species, microsomal stability assay is commonly run in multiple species. Metabolic stability of testing compound can be evaluated using human, rat, mouse, or other animal liver or intestine microsomes to predict intrinsic clearance.
(§2) The assay was carried out in 96-well microtiter plates at 37° C. Reaction mixtures (25 μL) contained a final concentration of 1 μM test compound, 0.5 mg/mL liver microsomes protein, and 1 mM NADPH and/or 1 mM UDPGA (with alamethicin) in 100 mM potassium phosphate, pH 7.4 buffer with 3 mM MgCl2. The incubation was done with N=1, but duplicate incubation at each time point can be prepared if necessary. At each of the time points (for example, 0, 15, 30, and 60 minutes), 150 μL of quench solution (100% acetonitrile with 0.1% formic acid) with internal standard was transferred to each well. Besides the zero minute controls, mixtures containing the same components except the NADPH can also be prepared as the negative control. Verapamil was included as a positive control to verify assay performance. Plates were sealed, vortexed, and centrifuged at 4° C. for 15 minutes at 4000 rpm. The supernatant is transferred to fresh plates for LC/MS/MS analysis.
(§3) Summarized conditions: [Compound]=1 μM, [LM]=0.5 mg/mL, [NADPH]=1 mM and/or [UDPGA]=1 mM, Buffer=100 mM Potassium Phosphate, pH 7.4 with 3 mM MgCl2, Time=0, 15, 30, and 60 min, and Temperature=37° C.
(§4) All samples were analyzed on LC/MS/MS using an AB Sciex API 4000 instrument, coupled to a Shimadzu LC-20AD LC Pump system. Analytical samples were separated using a Waters Atlantis T3 dC18 reverse phase HPLC column (20 mm×2.1 mm) at a flow rate of 0.5 mL/min. The mobile phase consisted of 0.1% formic acid in water (solvent A) and 0.1% formic acid in 100% acetonitrile (solvent B).
(§5) The extent of metabolism is calculated as the disappearance of the test compound, compared to the 0-min time incubation. Initial rates are calculated for the compound concentration and used to determine half-life (t1/2).

[2] = target: T1, androgen receptor (AR) (Homo sapiens, UniProt P10275, T878A); assay: Androgen-induced PSA-luciferase assay, Luciferase Assay A (LNCaP transiently transfected with PSA (6.1 kb)-luciferase reporter); type: cell-based; settings: LNCaP cells, 1 h pretreatment, R1881 (1 nM) 24 h, read-out: PSA-Luc IC50 Range
T1 construct: endogenous in cells; host or cells: LNCaP
T1 sequence (P10275 1-920 T878A): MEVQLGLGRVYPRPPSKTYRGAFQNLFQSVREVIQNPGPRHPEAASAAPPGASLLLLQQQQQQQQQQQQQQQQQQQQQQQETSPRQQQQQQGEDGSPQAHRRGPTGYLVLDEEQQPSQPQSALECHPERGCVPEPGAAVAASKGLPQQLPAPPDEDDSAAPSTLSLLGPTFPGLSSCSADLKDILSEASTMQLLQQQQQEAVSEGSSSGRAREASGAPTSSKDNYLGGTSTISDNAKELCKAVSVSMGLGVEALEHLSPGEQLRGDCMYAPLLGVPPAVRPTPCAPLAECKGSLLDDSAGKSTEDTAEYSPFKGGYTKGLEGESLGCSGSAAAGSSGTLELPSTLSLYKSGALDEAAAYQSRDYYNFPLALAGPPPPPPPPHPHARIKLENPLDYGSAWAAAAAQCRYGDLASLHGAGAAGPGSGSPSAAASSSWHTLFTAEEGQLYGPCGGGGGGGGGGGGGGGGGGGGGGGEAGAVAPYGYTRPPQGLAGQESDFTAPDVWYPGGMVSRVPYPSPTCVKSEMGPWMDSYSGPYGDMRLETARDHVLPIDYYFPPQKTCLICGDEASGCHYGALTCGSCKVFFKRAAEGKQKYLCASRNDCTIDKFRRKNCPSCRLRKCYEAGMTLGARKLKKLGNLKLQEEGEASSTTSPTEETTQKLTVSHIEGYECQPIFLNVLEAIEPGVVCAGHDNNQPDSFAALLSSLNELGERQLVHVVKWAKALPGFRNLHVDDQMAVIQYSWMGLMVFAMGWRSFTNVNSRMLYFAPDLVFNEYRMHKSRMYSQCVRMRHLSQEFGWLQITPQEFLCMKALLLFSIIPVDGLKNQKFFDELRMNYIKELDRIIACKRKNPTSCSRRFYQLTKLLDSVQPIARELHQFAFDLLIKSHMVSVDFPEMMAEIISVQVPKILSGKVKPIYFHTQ
Outline: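 LNCaP cells transfected 24 h with PSA (6.1 kb)-luciferase reporter, pretreated 1 h with compound, then stimulated 24 h with R1881 (1 nM). Firefly luminescence in lysates normalized to protein content; IC50 from activity relative to R1881-induced vehicle control.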

[3] = Microsomal stability assay, liver microsome half-life (dog); type: in vitro ADME; settings: pH 7.4; dog liver microsomes 0.5 mg/mL + NADPH, 1 μM compound, 37° C; read-out: Liver microsome + NADPH T½ (min) Dog
Description: as §1, §2, §3, §4, §5

[4] = Microsomal stability assay, liver microsome half-life (human); type: in vitro ADME; settings: pH 7.4; human liver microsomes 0.5 mg/mL + NADPH, 1 μM compound, 37° C; read-out: Liver microsome + NADPH T½ (min) Human
Description: as §1, §2, §3, §4, §5

[5] = Microsomal stability assay, liver microsome half-life (mouse); type: in vitro ADME; settings: pH 7.4; mouse liver microsomes 0.5 mg/mL + NADPH, 1 μM compound, 37° C; read-out: Liver microsome + NADPH T½ (min) Mouse
Description: as §1, §2, §3, §4, §5

[6] = Microsomal stability assay, liver microsome half-life (monkey); type: in vitro ADME; settings: pH 7.4; monkey liver microsomes 0.5 mg/mL + NADPH, 1 μM compound, 37° C; read-out: Liver microsome + NADPH T½ (min) Monkey
Description: as §1, §2, §3, §4, §5

Compound | half-life at 1 μM [1] [min] | IC50 [2] [nM] | half-life at 1 μM [3] [min] | half-life at 1 μM [4] [min] | half-life at 1 μM [5] [min] | half-life at 1 μM [6] [min]
COc1c(Cl)cc(N(c2ccc(-c3ccc4nc(NS(C)(=O)=O)cnc4c3)cc2)C2CC2)cc1C#N [Compound A163] | > 120 | < 500 | > 120 | > 120 | > 120 | > 120
[2H]C([2H])([2H])N(c1ccc(-c2ccc3nc(NS(C)(=O)=O)cnc3c2)cc1)c1cc(Cl)c(OCCCl)c(C#N)c1 [Compound A145] | > 120 | 500 to 2000 | > 120 | > 120 | > 120 | > 120
CC(C)(c1ccc(-c2cnn(C34CC(NS(C)(=O)=O)(C3)C4)c2)cc1)c1cc(Cl)c(OCCCl)c(C#N)c1 [Compound A75] | > 120 | 500 to 2000 | > 120 | > 120 | > 120 | > 120
CS(=O)(=O)Nc1cnc2cc(-c3ccc(Oc4cc(Cl)c(OC5CC5)c(C#N)c4)cc3)ccc2n1 [Compound A97, N-(6-(4-(3-chloro-5-cyano-4-cyclopropoxyphenoxy)phenyl)quinoxalin-2-yl) methanesulfonamide] | > 120 | 500 to 2000 | > 120 | > 120 | > 120 | > 120
CNC(=O)c1ccc(N2C(=S)N(c3ccc(C#N)c(C(F)(F)F)c3)C(=O)C2(C)C)cc1F [Enzalutamide, enzalutamide, reference compound] | > 120 |  | > 120 | > 120 | > 120 | > 120
CC(C)(c1ccc(OC[C@H]2C[C@H](NS(C)(=O)=O)C2)cc1)c1cc(Cl)c(OCCCl)c(C#N)c1 [Compound A15, N-((1r,3r)-3-((4-(2-(3-chloro-4-(2-chloroethoxy)-5-cyanophenyl)propan-2-yl)phenoxy)methyl)cyclobutyl)methanesulfonamide] | > 120 | 500 to 2000 | > 120 | > 120 | > 120 | > 120
CCN(c1ccc(-c2ccc3nc(NS(C)(=O)=O)cnc3c2)cc1)c1cc(Cl)c(OCCCl)c(C#N)c1 [Compound A82] | > 120 | < 500 | > 120 | > 120 | > 120 | > 120
CS(=O)(=O)Nc1cnc2cc(-c3ccc(N(c4cc(Cl)c(OC5CC5)c(C#N)c4)C4CC4)cc3)ccc2n1 [Compound A177] | > 120 | 500 to 2000 | > 120 | > 120 | > 120 | > 120
CC(C)(c1ccc(-c2cnn(CCNS(C)(=O)=O)c2)cc1)c1cc(Cl)c(OCCCl)c(C#N)c1 [Compound A12] | 72 | 500 to 2000 | > 120 | 82 | > 120 | 19
COc1c(Cl)cc(Oc2ccc(-c3ccc4nc(NS(C)(=O)=O)cnc4c3)cc2)cc1C#N [Compound A43] | > 120 | < 500 | > 120 | > 120 | > 120 | > 120
CC(C)(c1ccc(-c2cnc(N3CC(NS(C)(=O)=O)C3)nc2)cc1)c1cc(Cl)c(OCCCl)c(C#N)c1 [Compound A36, N-(1-(5-(4-(2-(3-chloro-4-(2-chloroethoxy)-5-cyanophenyl)propan-2-yl)phenyl)pyrimidin-2-yl)azetidin-3-yl)methanesulfonamide] | 66 | < 500 | > 120 | > 120 | > 120 | 49
CC(C)(c1ccc(-c2ccc(CNS(C)(=O)=O)nc2)cc1)c1cc(Cl)c(OCCCl)c(C#N)c1 [Compound A1] | 61 | 500 to 2000 | 62 | > 120 | > 120 | > 120
CS(=O)(=O)Nc1nc2ccc(-c3ccc(Oc4cc(Cl)c(OCCCl)c(C#N)c4)cc3)cc2cc1F [Compound A157] | > 120 | 500 to 2000 | > 120 | > 120 | > 120 | > 120
CS(=O)(=O)Nc1cnc2cc(-c3ccc(Oc4cc(Cl)c(N5CCOCC5)c(C#N)c4)cc3)ccc2n1 [Compound A83] | > 120 | 500 to 2000 | > 120 | > 120 | > 120 | > 120
CS(=O)(=O)NC1CN(c2cnc(-c3ccc(Oc4cc(Cl)c(OCCCl)c(C#N)c4)cc3)cn2)C1 [Compound A94] | > 120 | 500 to 2000 | > 120 | > 120 | > 120 | 117
CS(=O)(=O)Nc1cnc2cc(-c3ccc(N(CC(F)(F)F)c4cc(Cl)c(OCCCl)c(C#N)c4)cc3)ccc2n1 [Compound A22, N-(6-(4-((3-chloro-4-(2-chloroethoxy)-5-cyanophenyl)(2,2,2-trifluoroethyl)amino)phenyl)quinoxalin-2-yl)methanesulfonamide] | > 120 | 500 to 2000 | > 120 | > 120 | > 120 | > 120
CN(c1ccc(-c2ccc3nc(NS(C)(=O)=O)cnc3c2)cc1)c1cc(Cl)c(OCCCl)c(C#N)c1 [Compound A81] | > 120 | < 500 | > 120 | > 120 | > 120 | > 120
CC(C)(c1ccc(-c2ccc(N3CC(NS(C)(=O)=O)C3)nc2)cc1)c1cc(Cl)c(OCCCl)c(C#N)c1 [Compound A11] | 103 | 500 to 2000 | > 120 | 58 | > 120 | 28
